Reference: BindingDB's records for doi:10.1074/jbc.M113.514646 (Emory University, 2014)

Legend:
Assay in all cases: Ligand Binding Assay
Details in all cases: pH 8.2; 30 °C
[1] = target: Fatty acid-binding protein 5 [K24A,R33A,K34A] (Homo sapiens, UniProt Q01469, K24A/K34A/R33A)
Text: (§1) In brief, both wild-type and mutant hFABP5 were expressed and purified to homogeneity as described above and dialyzed in PBS (pH 8.2). […] Blank measurements obtained from protein-only samples were subtracted at each protein concentration tested to obtain the final values. […] Blanks consisting of 1,8-ANS and fatty acid in the absence of protein were subtracted at each ligand concentration tested. The resulting fluorescence values were used to calculate a Ki value for the fatty acid of interest. Data were collected at 30 °C on a BioTek Synergy plate reader using an excitation filter of 380/20nm and an emission filter of 460/40nmand processed inGraphPad Prism 5.

[2] = target: Fatty acid-binding protein 5 [M35A,L60A] (Homo sapiens, UniProt Q01469, L60A/M35A)
Sequence of Fatty acid-binding protein 5 [M35A,L60A] (Q01469 2-135 M35A/L60A limits assumed): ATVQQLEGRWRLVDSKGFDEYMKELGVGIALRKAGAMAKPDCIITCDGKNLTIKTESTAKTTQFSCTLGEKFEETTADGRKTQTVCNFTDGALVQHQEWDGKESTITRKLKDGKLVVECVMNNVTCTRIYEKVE
Text: as §1

[3] = target: Fatty acid-binding protein 5 (Homo sapiens, UniProt Q01469)
Sequence of Fatty acid-binding protein 5 (Q01469 whole entry): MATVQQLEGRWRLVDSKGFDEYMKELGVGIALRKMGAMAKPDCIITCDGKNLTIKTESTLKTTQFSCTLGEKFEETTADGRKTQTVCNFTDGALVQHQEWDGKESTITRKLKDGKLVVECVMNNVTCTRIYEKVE
Text: as §1

Sequence of Fatty acid-binding protein 5 [K24A,R33A,K34A] (Q01469 2-135 K24A/R33A/K34A limits assumed): as the sequence (Q01469 2-135 M35A/L60A limits assumed) above, with K23A, R32A, K33A, A34M, A59L counted along it

| Kd [1] [µM] | Kd [2] [µM] | Kd [3] [µM] | Structure (SMILES) | Ki [1] [nM] | Ki [2] [nM] | Ki [3] [nM] |
| --- | --- | --- | --- | --- | --- | --- |
|  |  |  | CCCCC/C=C\C/C=C\CCCCCCCC(=O)O | 2170 | 3470 | 1260 |
|  |  |  | CCCCCC/C=C\CCCCCCCC(=O)O [(9Z)-hexadec-9-enoic acid] | 1640 | 1780 | 1360 |
| 12.6 | 6.1 | 6.57 | O=S(=O)(O)c1cccc2cccc(Nc3ccccc3)c12 [ANS] |  |  |  |
|  |  |  | CCCCCCCCN[C@H]1C=C(CO)[C@@H](O)[C@H](O)[C@H]1O [NOEV] | 1240 | 700 | 1100 |
|  |  |  | CCCCC/C=C\C/C=C\C/C=C\C/C=C\CCCC(=O)O [[1-14C]Arachidonic acid] | 9370 | 5010 | 2590 |
